Like-named read-outs stand apart in the source and are kept apart here.

We go through two compounds from patent US20020128228A1, “Compositions and methods for the treatment of cancer” (priority 2000, published 2002).

For data set [1] the following is noted: single dose schedule, cited from earlier work.
The conditions of data set [2]: after intravenous administration; cited from earlier work.

On to `O=C1CCC(N2C(=O)c3ccccc3C2=O)C(=O)N1` (racemic) [thalidomide, 2-(2,6-dioxo-3-piperidinyl)-1H-isoindole-1,3(2H)-dione], for which, in the data set with malignant melanoma (single treatment with thalidomide continued for one year), the recurrence result was “only recurrence in the leg”. In addition, the metastases and adenopathy result in the data set on malignant melanoma (thalidomide alone, maximum 200 mg/d, after dacarbazine was discontinued, additional 3 months) is “resolution of the metastases continued and virtually no adenopathy was detected”.

On to `Cn1nnc2c(C(N)=O)ncn2c1=O` [temozolomide, 8-carbamoyl-3-methyl-imidazo-[5.1.d]-1,2,3,5-tetrazin-4(3H)-one], for which the nausea and vomiting result in data set [1] (dosages up to 700 mg/m^2) is recorded as “mild”; in data set [1] (doses higher than 700 mg/m^2) it was “Grade 4 toxicity”. Besides, the “half life distribution (plasma, biexponential decline)” value in data set [2] is given as 1.8 h.
